Test results as given in US10167262B2, “Herbicidal substituted 3-arylpyrazoles” (FMC CORPORATION, priority 2014, dated 2019).

How the values were obtained:
Assay in all cases: Test E pre-/postemergence greenhouse test, plant response rating 0-100
Format in all cases: in vivo
[1] = test system: waterhemp (common waterhemp, Amaranthus rudis); conditions: scale 0 to 100; for Waterhemp plant response rating: Preemergence
How it was run: (§1)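 Seeds sown in silt loam were treated preemergence, and seedlings in peat-based potting medium were treated postemergence at the 1- to 4-leaf stage (2-18 cm tall). Test chemicals were formulated in a non-phytotoxic solvent mixture with surfactant. After 14-21 days in the greenhouse, injury was rated visually against untreated controls (0 = no effect, 100 = complete control).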

kochia (Kochia scoparia) = conditions: Preemergence, scale 0 to 100
How it was run: as §1

[2] = test system: velvetleaf (Abutilon theophrasti); conditions: Preemergence, scale 0 to 100
How it was run: as §1

[3] = test system: surinam grass (Brachiaria decumbens); conditions: Preemergence, scale 0 to 100
How it was run: as §1

soybean (Glycine max) = conditions: scale 0 to 100; for Soybean plant response rating: Preemergence
How it was run: as §1

[4] = test system: field bindweed (Convolvulus arvensis); conditions: scale 0 to 100; for Field Bindweed plant response rating: Preemergence
How it was run: as §1

[5] = test system: ragweed (common ragweed, Ambrosia elatior); conditions: Preemergence, scale 0 to 100
How it was run: as §1

[6] = test system: morningglory (Ipomoea coccinea); conditions: Preemergence, scale 0 to 100
[7] = test system: yellow nutsedge (Cyperus esculentus); conditions: Preemergence, scale 0 to 100
[8] = test system: smartweed (ladysthumb smartweed, Polygonum persicaria); conditions: Preemergence, scale 0 to 100
[9] = test system: giant foxtail (Setaria faberii); conditions: Preemergence, scale 0 to 100
[10] = test system: goosegrass (Eleusine indica); conditions: Preemergence, scale 0 to 100
[11] = test system: large (Lg) crabgrass (Digitaria sanguinalis); conditions: Preemergence, scale 0 to 100
[12] = test system: green foxtail (Setaria viridis); conditions: Preemergence, scale 0 to 100
[13] = test system: johnsongrass (Sorghum halepense); conditions: Preemergence, scale 0 to 100
[14] = Amaranthus tuberculatus, post-emergence, Postemergence, 31 g ai/ha
[15] = Amaranthus tuberculatus, post-emergence, Postemergence, 125 g ai/ha

COCC(=O)n1cc(C(=O)c2ccccc2)c(-c2cc(Cl)cc(Cl)c2)n1 [Compound 16, 1-[4-benzoyl-3-(3,5-dichlorophenyl)-1H-pyrazol-1-yl]-2-methoxyethanone]
pest or weed control at 31 g/ha [1, 14]: 95% | pest or weed control at 62 g/ha ([1]; Amaranthus tuberculatus, post-emergence, Postemergence, 62 g ai/ha): 98% | pest or weed control at 125 g/ha [1, 15]: 98% | pest or weed control at 250 g/ha ([1]; Amaranthus tuberculatus, post-emergence, Postemergence, 250 g ai/ha): 98% | pest or weed control at 500 g/ha ([1]; Amaranthus tuberculatus, post-emergence, Postemergence, 500 g ai/ha): 100% | Waterhemp plant response rating ([1]; 31 g ai/ha): 0 | Waterhemp plant response rating ([1]; 62 g ai/ha): 30 | Waterhemp plant response rating ([1]; 125 g ai/ha): 70 | Waterhemp plant response rating ([1]; 250 g ai/ha): 100 | Waterhemp plant response rating ([1]; 500 g ai/ha): 100 | Kochia plant response rating (kochia (Kochia scoparia); 31 g ai/ha): 0 | Kochia plant response rating (kochia (Kochia scoparia); 62 g ai/ha): 0 | Kochia plant response rating (kochia (Kochia scoparia); 125 g ai/ha): 0 | Kochia plant response rating (kochia (Kochia scoparia); 250 g ai/ha): 50 | Kochia plant response rating (kochia (Kochia scoparia); 500 g ai/ha): 75 | Velvetleaf plant response rating ([2]; 31 g ai/ha): 0 | Velvetleaf plant response rating ([2]; 62 g ai/ha): 40 | Velvetleaf plant response rating ([2]; 125 g ai/ha): 85 | Velvetleaf plant response rating ([2]; 250 g ai/ha): 100 | Velvetleaf plant response rating ([2]; 500 g ai/ha): 100 | Surinam Grass plant response rating ([3]; 31 g ai/ha): 0 | Surinam Grass plant response rating ([3]; 62 g ai/ha): 0 | Surinam Grass plant response rating ([3]; 125 g ai/ha): 0 | Surinam Grass plant response rating ([3]; 250 g ai/ha): 0 | Surinam Grass plant response rating ([3]; 500 g ai/ha): 0 | plant injury at 31 g/ha (soybean (Glycine max); Glycine max, post-emergence, Postemergence, 31 g ai/ha): 0% | plant injury at 62 g/ha (soybean (Glycine max); Glycine max, post-emergence, Postemergence, 62 g ai/ha): 0% | plant injury at 125 g/ha (soybean (Glycine max); Glycine max, post-emergence, Postemergence, 125 g ai/ha): 0% | plant injury at 250 g/ha (soybean (Glycine max); Glycine max, post-emergence, Postemergence, 250 g ai/ha): 0% | plant injury at 500 g/ha (soybean (Glycine max); Glycine max, post-emergence, Postemergence, 500 g ai/ha): 0% | Soybean plant response rating (soybean (Glycine max); 31 g ai/ha): 0 | Soybean plant response rating (soybean (Glycine max); 62 g ai/ha): 0 | Soybean plant response rating (soybean (Glycine max); 125 g ai/ha): 0 | Soybean plant response rating (soybean (Glycine max); 250 g ai/ha): 0 | Soybean plant response rating (soybean (Glycine max); 500 g ai/ha): 0 | pest or weed control at 31 g/ha ([4]; Convolvulus arvensis, post-emergence, Postemergence, 31 g ai/ha): 0% | pest or weed control at 62 g/ha ([4]; Convolvulus arvensis, post-emergence, Postemergence, 62 g ai/ha): 0% | pest or weed control at 125 g/ha ([4]; Convolvulus arvensis, post-emergence, Postemergence, 125 g ai/ha): 0% | pest or weed control at 250 g/ha ([4]; Convolvulus arvensis, post-emergence, Postemergence, 250 g ai/ha): 0% | pest or weed control at 500 g/ha ([4]; Convolvulus arvensis, post-emergence, Postemergence, 500 g ai/ha): 0% | Field Bindweed plant response rating ([4]; 31 g ai/ha): 0 | Field Bindweed plant response rating ([4]; 62 g ai/ha): 0 | Field Bindweed plant response rating ([4]; 125 g ai/ha): 0 | Field Bindweed plant response rating ([4]; 250 g ai/ha): 0 | Field Bindweed plant response rating ([4]; 500 g ai/ha): 30 | Ragweed plant response rating ([5]; 31 g ai/ha): 0 | Ragweed plant response rating ([5]; 62 g ai/ha): 0 | Ragweed plant response rating ([5]; 125 g ai/ha): 85 | Ragweed plant response rating ([5]; 250 g ai/ha): 90 | Ragweed plant response rating ([5]; 500 g ai/ha): 98 | Morningglory plant response rating ([6]; 31 g ai/ha): 0 | Morningglory plant response rating ([6]; 62 g ai/ha): 20 | Morningglory plant response rating ([6]; 125 g ai/ha): 20 | Morningglory plant response rating ([6]; 250 g ai/ha): 0 | Morningglory plant response rating ([6]; 500 g ai/ha): 40 | Nutsedge, Yellow plant response rating ([7]; 31 g ai/ha): 0 | Nutsedge, Yellow plant response rating ([7]; 62 g ai/ha): 20 | Nutsedge, Yellow plant response rating ([7]; 125 g ai/ha): 35 | Nutsedge, Yellow plant response rating ([7]; 250 g ai/ha): 0 | Nutsedge, Yellow plant response rating ([7]; 500 g ai/ha): 0 | Smartweed plant response rating ([8]; 31 g ai/ha): 0 | Smartweed plant response rating ([8]; 62 g ai/ha): 0 | Smartweed plant response rating ([8]; 125 g ai/ha): 100 | Smartweed plant response rating ([8]; 250 g ai/ha): 100 | Smartweed plant response rating ([8]; 500 g ai/ha): 100 | Foxtail, Giant plant response rating ([9]; 31 g ai/ha): 0 | Foxtail, Giant plant response rating ([9]; 62 g ai/ha): 0 | Foxtail, Giant plant response rating ([9]; 125 g ai/ha): 0 | Foxtail, Giant plant response rating ([9]; 250 g ai/ha): 0 | Foxtail, Giant plant response rating ([9]; 500 g ai/ha): 0 | Goosegrass plant response rating ([10]; 31 g ai/ha): 0 | Goosegrass plant response rating ([10]; 62 g ai/ha): 0 | Goosegrass plant response rating ([10]; 125 g ai/ha): 0 | Goosegrass plant response rating ([10]; 250 g ai/ha): 40 | Goosegrass plant response rating ([10]; 500 g ai/ha): 50 | Crabgrass, Large plant response rating ([11]; 31 g ai/ha): 0 | Crabgrass, Large plant response rating ([11]; 62 g ai/ha): 0 | Crabgrass, Large plant response rating ([11]; 125 g ai/ha): 0 | Crabgrass, Large plant response rating ([11]; 250 g ai/ha): 0 | Crabgrass, Large plant response rating ([11]; 500 g ai/ha): 0 | Foxtail, Green plant response rating ([12]; 31 g ai/ha): 0 | Foxtail, Green plant response rating ([12]; 62 g ai/ha): 0 | Foxtail, Green plant response rating ([12]; 125 g ai/ha): 0 | Foxtail, Green plant response rating ([12]; 250 g ai/ha): 0 | Foxtail, Green plant response rating ([12]; 500 g ai/ha): 0 | Johnsongrass plant response rating ([13]; 31 g ai/ha): 0 | Johnsongrass plant response rating ([13]; 62 g ai/ha): 0 | Johnsongrass plant response rating ([13]; 125 g ai/ha): 0 | Johnsongrass plant response rating ([13]; 250 g ai/ha): 0 | Johnsongrass plant response rating ([13]; 500 g ai/ha): 30

CCn1cc(C(=O)c2ccccc2)c(-c2cc(Cl)cc(Cl)c2)n1 [Compound 31, [3-(3,5-dichlorophenyl)-1-ethyl-1H-pyrazol-4-yl]phenylmethanone]
pest or weed control at 31 g/ha [1, 14]: 50% | pest or weed control at 125 g/ha [1, 15]: 60% | Waterhemp plant response rating ([1]; 62 g ai/ha): 80 | Waterhemp plant response rating ([1]; 125 g ai/ha): 90 | Waterhemp plant response rating ([1]; 250 g ai/ha): 100 | Waterhemp plant response rating ([1]; 500 g ai/ha): 100 | Kochia plant response rating (kochia (Kochia scoparia); 62 g ai/ha): 35 | Kochia plant response rating (kochia (Kochia scoparia); 125 g ai/ha): 25 | Kochia plant response rating (kochia (Kochia scoparia); 250 g ai/ha): 50 | Kochia plant response rating (kochia (Kochia scoparia); 500 g ai/ha): 70 | Velvetleaf plant response rating ([2]; 62 g ai/ha): 65 | Velvetleaf plant response rating ([2]; 125 g ai/ha): 50 | Velvetleaf plant response rating ([2]; 250 g ai/ha): 80 | Velvetleaf plant response rating ([2]; 500 g ai/ha): 80 | Surinam Grass plant response rating ([3]; 62 g ai/ha): 0 | Surinam Grass plant response rating ([3]; 125 g ai/ha): 0 | Surinam Grass plant response rating ([3]; 250 g ai/ha): 0 | Surinam Grass plant response rating ([3]; 500 g ai/ha): 0 | Soybean plant response rating (soybean (Glycine max); 62 g ai/ha): 0 | Soybean plant response rating (soybean (Glycine max); 125 g ai/ha): 0 | Soybean plant response rating (soybean (Glycine max); 250 g ai/ha): 0 | Soybean plant response rating (soybean (Glycine max); 500 g ai/ha): 0 | Field Bindweed plant response rating ([4]; 62 g ai/ha): 0 | Field Bindweed plant response rating ([4]; 125 g ai/ha): 0 | Field Bindweed plant response rating ([4]; 250 g ai/ha): 0 | Field Bindweed plant response rating ([4]; 500 g ai/ha): 0 | Ragweed plant response rating ([5]; 62 g ai/ha): 0 | Ragweed plant response rating ([5]; 125 g ai/ha): 35 | Ragweed plant response rating ([5]; 250 g ai/ha): 50 | Ragweed plant response rating ([5]; 500 g ai/ha): 80 | Morningglory plant response rating ([6]; 62 g ai/ha): 0 | Morningglory plant response rating ([6]; 125 g ai/ha): 0 | Morningglory plant response rating ([6]; 250 g ai/ha): 0 | Morningglory plant response rating ([6]; 500 g ai/ha): 0 | Nutsedge, Yellow plant response rating ([7]; 62 g ai/ha): 0 | Nutsedge, Yellow plant response rating ([7]; 125 g ai/ha): 0 | Nutsedge, Yellow plant response rating ([7]; 250 g ai/ha): 0 | Nutsedge, Yellow plant response rating ([7]; 500 g ai/ha): 0 | Foxtail, Giant plant response rating ([9]; 62 g ai/ha): 0 | Foxtail, Giant plant response rating ([9]; 125 g ai/ha): 0 | Foxtail, Giant plant response rating ([9]; 250 g ai/ha): 0 | Foxtail, Giant plant response rating ([9]; 500 g ai/ha): 0 | Goosegrass plant response rating ([10]; 62 g ai/ha): 0 | Goosegrass plant response rating ([10]; 125 g ai/ha): 0 | Goosegrass plant response rating ([10]; 250 g ai/ha): 0 | Goosegrass plant response rating ([10]; 500 g ai/ha): 0 | Crabgrass, Large plant response rating ([11]; 62 g ai/ha): 0 | Crabgrass, Large plant response rating ([11]; 125 g ai/ha): 0 | Crabgrass, Large plant response rating ([11]; 250 g ai/ha): 0 | Crabgrass, Large plant response rating ([11]; 500 g ai/ha): 0 | Foxtail, Green plant response rating ([12]; 62 g ai/ha): 0 | Foxtail, Green plant response rating ([12]; 125 g ai/ha): 0 | Foxtail, Green plant response rating ([12]; 250 g ai/ha): 0 | Foxtail, Green plant response rating ([12]; 500 g ai/ha): 0 | Johnsongrass plant response rating ([13]; 62 g ai/ha): 0 | Johnsongrass plant response rating ([13]; 125 g ai/ha): 0 | Johnsongrass plant response rating ([13]; 250 g ai/ha): 0 | Johnsongrass plant response rating ([13]; 500 g ai/ha): 0
